What was measured:
[1] = system: Zymosan-induzierte Pfotenentzündung bei der Maus; assay: Model 4: zymosan-induced paw inflammation, spontaneous running wheel performance, AUC; format: in vivo, C57/B6 Mäuse; conditions: for AUC Mittelwert (Laufradaktivität): 7 days after Zymosan; for Statistischer Unterschied gegenüber Vehikel: Laufradaktivität AUC
Source text: Das Versuchstier hat in seinem Haltungskäfig Zugang zu einem Laufrad, dessen Umdrehungen elektronisch registriert werden. Die C57/B6 Mäuse benutzen in den Nachtstunden freiwillig das Laufrad und legen im Mittel nach einer einwöchigen Gewöhnungsphase 4100 Meter/Nacht zurück. Nach Zymosan Injektion ist die nächtliche Laufstrecke verkürzt. Diese Abnahme der Laufleistung gilt als Parameter für entzündungsschmerzbedingte Funktionseinschränkung. Versuchsdurchführung: Die Laufstrecke/24 Std. wurde nach einer Eingewöhnungsphase eine Woche lang zur Bestimmung der Baseline gemessen. Dann wurde in Kurzzeitnarkose mit Isofluran dem Versuchstier 25 µl einer Suspension, die […] Zymosan enthielt, in die rechte Hinterpfote injiziert. Anschließend wurde Laufstrecke/24 Std. während der nächsten sieben Tage ermittelt. In der Auswertung wurde die Fläche unter der Kurve der Laufstreckenwerte bestimmt (AUC, Tab. 7): je kleiner die AUC, desto geringer die Laufleistung in der Woche nach Zymosan Injektion. […] Die Substanzgabe wurde am Tag 1 nach Zymosan Injektion begonnen.

[2] = system: Zymosan-induzierte Pfotenentzündung bei der Ratte; assay: Model 1b: zymosan-induced paw inflammation, paw withdrawal threshold on mechanical stimulation (von Frey Test); format: in vivo
[3] = system: Kaolin/Carrageenan induzierte Kniegelenksentzündung bei der Ratte; assay: Model 2: kaolin/carrageenan-induced knee joint inflammation, responses of spinal neurons to pressure on the knee; format: in vivo
Source text: Modell: Zymosan-induzierte Pfotenentzündung bei der Ratte; Parameter: Pfotenwegziehzeit oder Pfotenwegziehschwelle bei thermischer oder mechanischer Stimulation der Hinterpfote. • 2. Modell: Kaolin/Carrageenan induzierte Kniegelenksentzündung bei der Ratte; Parameter: Reaktion spinaler Neurone bei Druckreizung des Knies.
Versuchsdurchführung: Bei Ratten wurde in Trapanal-Narkose der Wirbelkanal eröffnet und Rückenmarksneurone, die "Schmerzimpulse" aus dem Kniegelenk verarbeiteten, identifiziert. Nach Identifizierung wurde eine Langzeitableitung durchgeführt, in der die Aktivität der Nervenzelle vor und während der Entwicklung einer akuten Entzündung im Kniegelenk registriert wurde. Dazu wurden in einer Kontrollperiode vor Induktion der Entzündung und nach Induktion der Entzündung für mehrere Stunden die Antworten auf nicht noxische und noxische Reizung am Kniegelenk gemessen.
Die akute Entzündung wurde durch die intraartikuläre Injektion einer Kaolin und Carrageenan Suspension (etwa 150 µl) induziert. In Kontrollexperimenten wurde nur das Vehikel auf die Rückenmarksoberfläche aufgebracht, um die Entwicklung der Übererregbarkeit unter Kontrollbedingungen darzustellen. In der Regel fand diese Entwicklung der Übererregbarkeit innerhalb von 2 bis 4 Stunden statt, und sie äußerte sich in einer starken Zunahme der Antworten auf nicht noxische und noxische Reizung des Kniegelenks (Tab. 3). […] Dann wurden die Antworten der Zelle auf nichtnoxische und noxische Reizung wie in den Kontrollexperimenten weiter verfolgt.

[4] = system: Zymosan-induzierte Pfotenentzündung bei der Ratte; assay: Model 1a: zymosan-induced paw inflammation, paw withdrawal latency on thermal stimulation (Hargreaves Test); format: in vivo
[5] = system: Zymosan-induzierte Pfotenentzündung bei der Maus; assay: Model 3: zymosan-induced paw inflammation, paw withdrawal latency on thermal stimulation (Hargreaves Test), AUC; format: in vivo; conditions: for Statistischer Unterschied gegenüber Vehikel: thermische Hyperalgesie AUC; for AUC Mittelwert [Maß für Hyperalgesie]: thermische Hyperalgesie
Experimental: Parameter: Pfotenwegziehzeit bei thermischer Stimulation der Hinterpfote. Versuchsdurchführung: In Kurzzeitnarkose mit Isofluran wurde dem Versuchstier 25 μl einer Suspension, die 50 mg/ml Zymosan enthielt, in die rechte Hinterpfote injiziert. Dann wurde die […] quantitativ wie folgt bestimmt: Bestimmung der Pfotenwegziehzeit bei thermischer Stimulation (Hargreaves Test; s.o.). Das Versuchstier wurde in […] Versuchstier nach der Erkundungsphase (etwa 5 min) nicht mehr bewegte, wurde […] zu stimulierenden Hinterpfote positioniert und […]. Die […] ab, so dass die Hauttemperatur […] linear […] Pfote […] ab. Die Pfotentemperatur zum Zeitpunkt des Wegziehens ist für das Tier gerade eben unangenehm, […] von thermischer Schmerzschwelle. Kurz vor Zymosan-Injektion und für 7 bis 14 Tage nach Injektion wurde […] an der rechten und linken Hinterpfote bestimmt. Anschließend wurde […] Integral der Fläche, die aus […] und […] Pfote gebildet wurde, bestimmt (AUC, area between the curves, s. Tabellen 5 und 6). Je größer dieser Wert ist, umso […], und je kleiner der Wert bei Tieren, die die Substanz erhalten, desto stärker ist der Therapieerfolg. In einer 7-Tage Studie induzierte die Zymosan Injektion in […], Tab. 5). In den anderen Gruppen wurde die Substanzgabe einen Tag nach Zymosan Injektion, […] schon […]. […] Die […] Studie (7 Tage) ergab, dass die AUC unter Substanzgabe dosisabhängig abnahm. […] In einer parallel […] von Tieren wurde Paracetamol in einer sehr hohen Dosis ebenfalls zweimal am Tag verabreicht. […] Paracetamol (Tab. 5). […] […] Zymosan Injektion und Dosierschema […] zuvor beschriebenen Studie. Einziger Unterschied war, dass die weitere Studie über 14 Tage lief.

[6] = 7 days, 2.8 mg/kg oral twice daily
[7] = 7 days, 25 mg/kg oral twice daily
[8] = 7 days, 75 mg/kg oral twice daily
[9] = je 30 mg/kg i.p. (x3), 0,5 h nach Zymosan-Injektion
[10] = je 30 mg/kg i.p. (x3), 1 h nach Zymosan-Injektion
[11] = je 30 mg/kg i.p. (x3), 2 h nach Zymosan-Injektion
[12] = je 30 mg/kg i.p. (x3), 3 h nach Zymosan-Injektion
[13] = je 30 mg/kg i.p. (x3), 4 h nach Zymosan-Injektion
[14] = je 30 mg/kg i.p. (x3), 5 h nach Zymosan-Injektion
[15] = je 30 mg/kg i.p. (x3), 6 h nach Zymosan-Injektion
[16] = je 30 mg/kg i.p. (x3), 7 h nach Zymosan-Injektion
[17] = je 30 mg/kg i.p. (x3), 24 h nach Zymosan-Injektion
[18] = je 30 mg/kg i.p. (x3), Baseline -0,5 h
[19] = etwa 30 µl of 10 µM Lösung on the spinal cord, 30-60 min nach K/C-Injektion
[20] = etwa 30 µl of 10 µM Lösung on the spinal cord, 60-120 min nach K/C-Injektion
[21] = etwa 30 µl of 10 µM Lösung on the spinal cord, 120-180 min nach K/C-Injektion
[22] = etwa 30 µl of 10 µM Lösung on the spinal cord, 180-240 min nach K/C-Injektion
[23] = etwa 30 µl of 10 µM Lösung on the spinal cord, Baseline

Which results are given for `CNc1nccc(-c2cc3cc(C(=O)N[C@@H](CN(c4ccccc4)c4ccccc4)c4n[nH]c(=O)o4)ccc3[nH]2)n1` [Verbindung 13, 2-(2-Methylamin-pyrimidin-4-yl)-1H-indol-5-carbonsäure [(S)-2-diphenylamin-1-(5-oxo-4,5-dihydro-[1,3,4]oxadiazol-2-yl)-ethyl]-amid]?
AUC Mittelwert (Laufradaktivität) ([1]; 2.8 mg/kg oral twice daily): 131.1; AUC Mittelwert (Laufradaktivität) ([1]; 25 mg/kg oral twice daily): 216.7; AUC Mittelwert (Laufradaktivität) ([1]; 75 mg/kg oral twice daily): 251.7; Laufleistung nach Zymosan Injektion gegenüber der Vehikelgruppe ([1]; 7 days, twice daily): dosisabhängige Steigerung der Laufstrecke; Statistischer Unterschied gegenüber Vehikel [1, 6]: nein; Statistischer Unterschied gegenüber Vehikel [1, 7]: ja; Statistischer Unterschied gegenüber Vehikel [1, 8]: ja; mechanische Hyperalgesie ([2]; je 30 mg/kg i.p. (x3)): signifikant reduziert; mechanische Hyperalgesie, duration of effect nach der letzten Substanzgabe ([2]; je 30 mg/kg i.p. (x3)): ≥ 18 Std.; mechanische Hyperalgesie, onset of effect nach Zymosan Injektion ([2]; je 30 mg/kg i.p. (x3)): 1 Stunde; Veränderung der Pfotenwegziehschwelle (%) Mittelwert [2, 9]: -37,4%; Veränderung der Pfotenwegziehschwelle (%) Mittelwert [2, 10]: -43,1%; Veränderung der Pfotenwegziehschwelle (%) Mittelwert [2, 11]: -36,0%; Veränderung der Pfotenwegziehschwelle (%) Mittelwert [2, 12]: -35,1%; Veränderung der Pfotenwegziehschwelle (%) Mittelwert [2, 13]: -46,7%; Veränderung der Pfotenwegziehschwelle (%) Mittelwert [2, 14]: -40,6%; Veränderung der Pfotenwegziehschwelle (%) Mittelwert [2, 15]: -33,1%; Veränderung der Pfotenwegziehschwelle (%) Mittelwert [2, 16]: -44,7%; Veränderung der Pfotenwegziehschwelle (%) Mittelwert [2, 17]: -9,7%; Veränderung der Pfotenwegziehschwelle (%) Mittelwert [2, 18]: 0,0%; Wirkung auf die Antworten auf noxische Kniegelenksstimulation, comparison with Indomethacin ([3]; comparison with published data of an earlier study): insgesamt stärker ausgeprägt als die Wirkung von Indomethacin; Entwicklung der spinalen Übererregbarkeit gegenüber den Kontrollen ([3]; etwa 30 µl of 10 µM Lösung on the spinal cord): beinahe vollständig unterdrückt; Neuronale Antworten vor und während Kniegelenksentzündung, Nicht-noxische Reizung am Kniegelenk, Mittelwert [3, 19]: 8,66 imp/15s; Neuronale Antworten vor und während Kniegelenksentzündung, Noxische Reizung am Kniegelenk, Mittelwert [3, 19]: 62,3 imp/15s; Neuronale Antworten vor und während Kniegelenksentzündung, Nicht-noxische Reizung am Kniegelenk, Mittelwert [3, 20]: 2,71 imp/15s; Neuronale Antworten vor und während Kniegelenksentzündung, Noxische Reizung am Kniegelenk, Mittelwert [3, 20]: 26,9 imp/15s; Neuronale Antworten vor und während Kniegelenksentzündung, Nicht-noxische Reizung am Kniegelenk, Mittelwert [3, 21]: 11,16 imp/15s; Neuronale Antworten vor und während Kniegelenksentzündung, Noxische Reizung am Kniegelenk, Mittelwert [3, 21]: 8,5 imp/15s; Neuronale Antworten vor und während Kniegelenksentzündung, Nicht-noxische Reizung am Kniegelenk, Mittelwert [3, 22]: 39,78 imp/15s; Neuronale Antworten vor und während Kniegelenksentzündung, Noxische Reizung am Kniegelenk, Mittelwert [3, 22]: 19,5 imp/15s; Neuronale Antworten vor und während Kniegelenksentzündung, Nicht-noxische Reizung am Kniegelenk, Mittelwert [3, 23]: 0,92 imp/15s; Neuronale Antworten vor und während Kniegelenksentzündung, Noxische Reizung am Kniegelenk, Mittelwert [3, 23]: 0,8 imp/15s; thermische Hyperalgesie, comparison with Diclofenac ([4]; comparison data from an earlier study): erheblich stärker reduziert als das NSAID Diclofenac; thermische Hyperalgesie, duration of effect nach der letzten Substanzgabe ([4]; je 30 mg/kg i.p. (x3)): > 18 Std.; Veränderung der Pfotenwegziehzeit (%) Mittelwert [4, 9]: -16,6%; Veränderung der Pfotenwegziehzeit (%) Mittelwert [4, 10]: -31,3%; Veränderung der Pfotenwegziehzeit (%) Mittelwert [4, 11]: -30,2%; Veränderung der Pfotenwegziehzeit (%) Mittelwert [4, 12]: -15,3%; Veränderung der Pfotenwegziehzeit (%) Mittelwert [4, 13]: -16,0%; Veränderung der Pfotenwegziehzeit (%) Mittelwert [4, 14]: -9,7%; Veränderung der Pfotenwegziehzeit (%) Mittelwert [4, 15]: 5,0%; Veränderung der Pfotenwegziehzeit (%) Mittelwert [4, 16]: 3,4%; Veränderung der Pfotenwegziehzeit (%) Mittelwert [4, 17]: -3,8%; Veränderung der Pfotenwegziehzeit (%) Mittelwert [4, 18]: 0,0%; thermische Hyperalgesie, Seitenunterschied in der Pfotenwegziehzeit ([4]; je 30 mg/kg i.p., after the third dose): überhaupt kein Seitenunterschied in der Pfotenwegziehzeit mehr zu finden; thermische Hyperalgesie compared with Kontrollgruppe ([4]; je 30 mg/kg i.p., from two hours after Zymosan Injektion): geringer ausgeprägt als in der Kontrollgruppe; thermische Hyperalgesie, comparison with Paracetamol ([5]; 7-day study, twice daily): stärker als Paracetamol; Effekte on thermische Hyperalgesie in der hohen Dosierung ([5]; 14-day study, high dose (25 mg/kg)): gleich stark; minimal effective dose ([5]; 168 h, 7-day study, oral twice daily, read-out: Einzeldosis from which Therapieerfolg signifikant gegenüber der Vehikelgruppe): ≥ 8.3 mg/kg; Statistischer Unterschied gegenüber Vehikel [5, 6]: nein; Statistischer Unterschied gegenüber Vehikel [5, 7]: ja; Statistischer Unterschied gegenüber Vehikel [5, 8]: ja; Statistischer Unterschied gegenüber Vehikel ([5]; 14 days, 25 mg/kg twice daily): ja; AUC Mittelwert [Maß für Hyperalgesie] ([5]; 7 days after Zymosan, 2.8 mg/kg oral twice daily): 40.4; AUC Mittelwert [Maß für Hyperalgesie] ([5]; 7 days after Zymosan, 25 mg/kg oral twice daily): 19.4; AUC Mittelwert [Maß für Hyperalgesie] ([5]; 7 days after Zymosan, 75 mg/kg oral twice daily): 17.4; AUC Mittelwert [Maß für Hyperalgesie] ([5]; 14 days after Zymosan, 25 mg/kg twice daily): 47.6

— patent publication EP1531819B1, “USE OF I kappa B KINASE INHIBITORS FOR THE TREATMENT OF PAIN” (Sanofi-Aventis Deutschland GmbH, priority 2002, dated 2004)
